Data on one compound can be found in patent publication US10815275B2, “Antimicrobial peptoids with improved selectivity and use thereof” (priority 2018, dated 2020).

Common to all, as to format: cell-based
The subject of one data set is E. coli strain ATCC25922. To be noted: strain ATCC25922. Summed up: (§1)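 Broth microdilution in cation-adjusted Mueller Hinton Broth used 2×10^5 CFU/mL in medium with 0.2% BSA and 0.01% acetic acid. Peptoids were 2-fold serially diluted, and plates were incubated 18 hours at 37° C. with absorbance read at 600 nm. MIC was the lowest concentration completely suppressing growth, averaged over three independent experiments; MBC was also determined.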

Data set [1] has as its system S. aureus strain KCTC1621. To be noted: strain KCTC1621. The method in brief: as §1
A further data set can be described thus: in vitro. To be noted: concentration indicating 50% survival, 24 h, MTS; read-out: LC50. The method in brief: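 Human lung […] cells, 1.3×10^4 per well in DMEM with 10% FBS, incubated overnight, then treated 24 h with 2-fold serially diluted peptoid at 37° C, 5% CO2. MTS added for 4 hours, absorbance 490 nm; % survival relative to untreated control cells.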

SMILES strings stand for the structures. Values after ≈ are worked out from the molar mass of the structure shown. Non-standard residues stand in square brackets, D forms with d. Residues, ends and D or L forms follow the SMILES beside them. Nspe = C[C@H](NCC(=O)O)c1ccccc1; Nlys = NCCCCNCC(=O)O

As for `C[C@@H](c1ccccc1)N(CC(N)=O)C(=O)CN(C(=O)CN(CCCCN)C(=O)CN(C(=O)CN(C(=O)CN(CCCCN)C(=O)CN(C(=O)CN(C(=O)CN(CCCCN)C(=O)CN(C(=O)CN(C(=O)CNCCCCN)[C@@H](C)c1ccccc1)[C@@H](C)c1ccccc1)[C@@H](C)c1ccccc1)[C@@H](C)c1ccccc1)[C@@H](C)c1ccccc1)[C@@H](C)c1ccccc1)[C@@H](C)c1ccccc1` [compound 1] (H-[Nlys][Nspe][Nspe][Nlys][Nspe][Nspe][Nlys][Nspe][Nspe][Nlys][Nspe][Nspe]-NH2), the “MBC E. coli” value in the data set with E. coli strain ATCC25922 is 3.1 µM (≈ 5.64 µg/mL). Moreover, the “MBC S. aureus” value in data set [1] stood at 1.6 µM (≈ 2.91 µg/mL). Also, the CC50 at 24 h in the data set “in vitro” was determined as 8 µM.
